Assay results published in patent US8952024B2, “Herbicidal pyrimidone derivatives” (E I du Pont de Nemours and Company, priority 2009, dated 2015).

Columns and labels:
[1] = tested on: mallow (common mallow, Malva sylvestris); assay: Test D pre-/postemergence plant response; type: in vivo
Outline: (§1)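 Visual 0–100 scoring (100 = complete control) versus untreated controls after 14–21 greenhouse days. Compounds, formulated in surfactant-containing non-phytotoxic solvent, were applied preemergence to seeded loam/sand and postemergence to 2–18 cm plants (1–4 leaves).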

[2] = tested on: sandbur (southern sandbur, Cenchrus echinatus); assay: Test D pre-/postemergence plant response; type: in vivo
Outline: as §1

[3] = tested on: bermudagrass (Cynodon dactylon); assay: Test D pre-/postemergence plant response; type: in vivo
Outline: as §1

[4] = tested on: field bindweed (Convolvulus arvensis); assay: Test D pre-/postemergence plant response; type: in vivo
Outline: as §1

[5] = tested on: dayflower (Virginia (VA) dayflower, Commelina virginica); assay: Test D pre-/postemergence plant response; type: in vivo
Outline: as §1

[6] = tested on: groundsel (common groundsel, Senecio vulgaris); assay: Test D pre-/postemergence plant response; type: in vivo; conditions: Postemergence
Outline: as §1

[7] = tested on: quackgrass (Elytrigia repens); assay: Test D pre-/postemergence plant response; type: in vivo
Outline: as §1

[8] = tested on: black mustard (Brassica nigra); assay: Test D pre-/postemergence plant response; type: in vivo
Outline: as §1

[9] = tested on: spanishneedles (Bidens bipinnata); assay: Test D pre-/postemergence plant response; type: in vivo
Outline: as §1

[10] = tested on: naked crabgrass (Digitaria nuda); assay: Test D pre-/postemergence plant response; type: in vivo
Outline: as §1

[11] = tested on: Surinam grass (Brachiaria decumbens); assay: Test D pre-/postemergence plant response; type: in vivo
Outline: as §1

[12] = tested on: guineagrass (Panicum maximum); assay: Test D pre-/postemergence plant response; type: in vivo
Outline: as §1

[13] = tested on: Italian ryegrass (Lolium multiflorum); assay: Test D pre-/postemergence plant response; type: in vivo
Outline: as §1

[14] = tested on: signalgrass (broadleaf signalgrass, Brachiaria platyphylla); assay: Test D pre-/postemergence plant response; type: in vivo
Outline: as §1

[15] = tested on: Russian thistle (Salsola kali); assay: Test D pre-/postemergence plant response; type: in vivo
Outline: as §1

[16] = Postemergence, 16 g ai/ha, scale 0 to 100
[17] = Postemergence, 31 g ai/ha, scale 0 to 100
[18] = Postemergence, 125 g ai/ha, scale 0 to 100 (0 no effect, 100 complete control)
[19] = Postemergence, 62 g ai/ha, scale 0 to 100 (0 no effect, 100 complete control)
[20] = Preemergence, 16 g ai/ha, scale 0 to 100, 0 no effect, 100 complete control
[21] = Preemergence, 31 g ai/ha, scale 0 to 100 (0 no effect, 100 complete control)
[22] = Preemergence, 62 g ai/ha, scale 0 to 100
[23] = Preemergence, 125 g ai/ha, scale 0 to 100
[24] = Postemergence, 31 g ai/ha, scale 0 to 100 (0 no effect, 100 complete control)
[25] = Preemergence, rate not given, scale 0 to 100, 0 no effect, 100 complete control

melting point: 168 to 169 °C
SMILES: Cc1c(F)cccc1-n1c(-c2ccccc2)ncc(C(=O)C2=C(O)CCCC2=O)c1=O [Compound 47, 3-(3-fluoro-2-methylphenyl)-5-[(2-hydroxy-6-oxo-1-cyclohexen-1-yl)carbonyl]-2-phenyl-4(3H)-pyrimidinone]
Plant response rating, Mallow [1, 16]: 35 | Plant response rating, Mallow [1, 17]: 50 | Plant response rating, Mallow [1, 18]: 65 | Plant response rating, Mallow [1, 19]: 65 | Plant response rating, Mallow [1, 20]: 0 | Plant response rating, Mallow [1, 21]: 0 | Plant response rating, Mallow [1, 22]: 65 | Plant response rating, Mallow [1, 23]: 98 | Plant response rating, Sandbur [2, 16]: 5 | Plant response rating, Sandbur [2, 17]: 5 | Plant response rating, Sandbur [2, 18]: 35 | Plant response rating, Sandbur [2, 19]: 20 | Plant response rating, Sandbur [2, 20]: 0 | Plant response rating, Sandbur [2, 21]: 0 | Plant response rating, Sandbur [2, 23]: 90 | Plant response rating, Bermudagrass [3, 16]: 50 | Plant response rating, Bermudagrass [3, 24]: 50 | Plant response rating, Bermudagrass [3, 18]: 90 | Plant response rating, Bermudagrass [3, 19]: 70 | Plant response rating, Bermudagrass [3, 20]: 10 | Plant response rating, Bermudagrass [3, 21]: 25 | Plant response rating, Bermudagrass [3, 22]: 50 | Plant response rating, Bermudagrass [3, 23]: 100 | Plant response rating, Field Bindweed [4, 16]: 35 | Plant response rating, Field Bindweed [4, 17]: 40 | Plant response rating, Field Bindweed [4, 18]: 65 | Plant response rating, Field Bindweed [4, 19]: 50 | Plant response rating, Field Bindweed [4, 20]: 0 | Plant response rating, Field Bindweed [4, 21]: 0 | Plant response rating, Field Bindweed [4, 22]: 0 | Plant response rating, Field Bindweed [4, 23]: 35 | Plant response rating, Dayflower, VA [5, 16]: 10 | Plant response rating, Dayflower, VA [5, 17]: 15 | Plant response rating, Dayflower, VA [5, 18]: 30 | Plant response rating, Dayflower, VA [5, 19]: 20 | Plant response rating, Dayflower, VA [5, 20]: 35 | Plant response rating, Dayflower, VA [5, 21]: 35 | Plant response rating, Dayflower, VA [5, 22]: 50 | Plant response rating, Dayflower, VA [5, 23]: 50 | Plant response rating, Groundsel ([6]; 16 g ai/ha, scale 0 to 100): 100 | Plant response rating, Groundsel ([6]; 31 g ai/ha, scale 0 to 100): 100 | Plant response rating, Groundsel ([6]; 125 g ai/ha, scale 0 to 100 (0 no effect, 100 complete control)): 100 | Plant response rating, Groundsel ([6]; 62 g ai/ha, scale 0 to 100 (0 no effect, 100 complete control)): 100 | Plant response rating, Quackgrass [7, 16]: 0 | Plant response rating, Quackgrass [7, 17]: 0 | Plant response rating, Quackgrass [7, 18]: 5 | Plant response rating, Quackgrass [7, 19]: 0 | Plant response rating, Quackgrass [7, 20]: 0 | Plant response rating, Quackgrass [7, 21]: 0 | Plant response rating, Quackgrass [7, 23]: 0 | Plant response rating, Black Mustard [8, 16]: 95 | Plant response rating, Black Mustard [8, 24]: 100 | Plant response rating, Black Mustard [8, 18]: 100 | Plant response rating, Black Mustard [8, 19]: 100 | Plant response rating, Black Mustard [8, 20]: 0 | Plant response rating, Black Mustard [8, 21]: 65 | Plant response rating, Black Mustard [8, 22]: 80 | Plant response rating, Black Mustard [8, 23]: 100 | Plant response rating, Spanishneedles [9, 16]: 35 | Plant response rating, Spanishneedles [9, 17]: 40 | Plant response rating, Spanishneedles [9, 18]: 70 | Plant response rating, Spanishneedles [9, 19]: 65 | Plant response rating, Spanishneedles [9, 20]: 0 | Plant response rating, Spanishneedles [9, 21]: 95 | Plant response rating, Spanishneedles [9, 23]: 95 | Plant response rating, Spanishneedles [9, 25]: 95 | Plant response rating, Crabgrass, Naked [10, 16]: 20 | Plant response rating, Crabgrass, Naked [10, 17]: 35 | Plant response rating, Crabgrass, Naked [10, 18]: 65 | Plant response rating, Crabgrass, Naked [10, 19]: 35 | Plant response rating, Crabgrass, Naked [10, 20]: 0 | Plant response rating, Crabgrass, Naked [10, 21]: 0 | Plant response rating, Crabgrass, Naked [10, 22]: 60 | Plant response rating, Crabgrass, Naked [10, 23]: 98 | Plant response rating, Surinam Grass [11, 16]: 35 | Plant response rating, Surinam Grass [11, 17]: 50 | Plant response rating, Surinam Grass [11, 18]: 70 | Plant response rating, Surinam Grass [11, 19]: 60 | Plant response rating, Surinam Grass [11, 20]: 0 | Plant response rating, Guineagrass [12, 16]: 10 | Plant response rating, Guineagrass [12, 17]: 20 | Plant response rating, Guineagrass [12, 18]: 30 | Plant response rating, Guineagrass [12, 19]: 20 | Plant response rating, Guineagrass [12, 20]: 0 | Plant response rating, Guineagrass [12, 21]: 0 | Plant response rating, Guineagrass [12, 22]: 0 | Plant response rating, Guineagrass [12, 23]: 0 | Plant response rating, Ryegrass, Italian [13, 16]: 0 | Plant response rating, Ryegrass, Italian [13, 17]: 10 | Plant response rating, Ryegrass, Italian [13, 18]: 30 | Plant response rating, Ryegrass, Italian [13, 19]: 20 | Plant response rating, Ryegrass, Italian [13, 20]: 0 | Plant response rating, Ryegrass, Italian [13, 21]: 0 | Plant response rating, Ryegrass, Italian [13, 23]: 0 | Plant response rating, Ryegrass, Italian [13, 25]: 0 | Plant response rating, Signalgrass [14, 16]: 0 | Plant response rating, Signalgrass [14, 17]: 5 | Plant response rating, Signalgrass [14, 18]: 20 | Plant response rating, Signalgrass [14, 19]: 15 | Plant response rating, Signalgrass [14, 20]: 0 | Plant response rating, Signalgrass [14, 21]: 0 | Plant response rating, Signalgrass [14, 23]: 90 | Plant response rating, Russian Thistle [15, 16]: 20 | Plant response rating, Russian Thistle [15, 19]: 20 | Plant response rating, Russian Thistle [15, 20]: 0 | Plant response rating, Russian Thistle [15, 23]: 100
